These results are taken from patent publication US20090036455A1, “ARYLPIPERAZINE DERIVATIVE AND USE THEREOF AS 5-HT1A RECEPTOR LIGANDS” (CEPA SCHWARZ PHARMA, S.L., priority 2004, published 2009).

Structures are written as SMILES. Structures can show the parent of a compound that is named as a salt. Some results are limits rather than exact numbers.

One data set concerns α1 adrenoceptor. In words: Radioligand binding assay, α1 adrenoceptor ([3H]prazosin, rat cerebral cortex membranes). As to conditions: for percent value (α1) / Ki: rat cerebral cortex membranes; for percent value (α1): [3H]prazosin, footnote to * not given; for Ki: 0.2 nM [3H]prazosin, hydrochloride salts, read-out: Ki ± SEM (α1); for binding to the α1 adrenoceptor (in words): see table 1. On the procedure:
(§1) For all receptor binding assays, male Sprague-Dawley rats (Rattus norvegicus albinus), weighing 180-200 g, were killed by decapitation and the brains rapidly removed and dissected. Tissues were stored at −80° C. for subsequent use and homogenized on a Polytron PT-10 homogenizer. Membrane suspensions were centrifuged on a Beckman J2-HS instrument.
The cerebral cortex was homogenized in 20 volumes of ice-cold buffer (50 mM Tris-HCl, 10 mM MgCl2, pH 7.4 at 25° C.) and centrifuged at 30000 g for 15 min. Pellets were washed twice by resuspension and centrifugation. Final pellets were resuspended in the same buffer. Fractions of the final membrane suspension (about 250 μg of protein) were incubated at 25° C. for 30 min with 0.2 nM [^3H]prazosin (23 Ci/mmol), in the presence or absence of six concentrations of the competing drug, in a final volume of 2 mL of buffer. Nonspecific binding was determined with 10 μM phentolamine.
(§2) For all binding assays, competing drug, nonspecific, total and radioligand bindings were defined in triplicate. Incubation was terminated by rapid vacuum filtration through Whatman GF/B filters, presoaked in 0.05% poly(ethylenimine), using a Brandel cell harvester. The filters were then washed with the assay buffer, dried and placed in poly(ethylene) vials to which were added 4 mL of a scintillation cocktail (Aquasol). The radioactivity bound to the filters was measured by liquid scintillation spectrometry. The data were analyzed by an iterative curve-fitting procedure (program Prism, Graph Pad), which provided IC50, Ki, and r^2 values for test compounds, Ki values being calculated from the Cheng and Prusoff equation. The protein concentrations of the rat cerebral cortex and the rat striatum were determined by the method of Lowry, using bovine serum albumin as the standard.

Another data set has as its target T1, 5-HT1A receptor (Rattus norvegicus, UniProt P19327).
T1 construct: The cerebral cortex was homogenized in 10 volumes of ice-cold Tris buffer; from tissue; host or cells: rat cerebral cortex membranes
T1 sequence (P19327 1-422): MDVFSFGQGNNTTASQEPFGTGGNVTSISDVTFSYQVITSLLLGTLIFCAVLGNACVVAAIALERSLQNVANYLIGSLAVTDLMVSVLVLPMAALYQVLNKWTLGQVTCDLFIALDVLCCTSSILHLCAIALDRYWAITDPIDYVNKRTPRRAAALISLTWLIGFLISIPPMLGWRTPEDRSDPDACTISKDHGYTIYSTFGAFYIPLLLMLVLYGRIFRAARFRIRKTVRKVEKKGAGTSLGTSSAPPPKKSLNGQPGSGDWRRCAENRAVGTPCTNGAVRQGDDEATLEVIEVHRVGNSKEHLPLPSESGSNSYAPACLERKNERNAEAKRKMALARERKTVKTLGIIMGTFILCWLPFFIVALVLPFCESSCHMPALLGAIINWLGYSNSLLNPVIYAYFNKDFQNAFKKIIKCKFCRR
As to the kind of experiment: Radioligand binding assay, 5-HT1A receptor ([3H]-8-OH-DPAT, rat cerebral cortex membranes). The note with it: for Ki: 0.6 nM [3H]-8-OH-DPAT, hydrochloride salts, read-out: Ki ± SEM (5-HT1A); for binding to the 5-HT1A receptor (in words): see table 1. On the procedure: as §1
The cerebral cortex was homogenized in 10 volumes of ice-cold Tris buffer (50 mM Tris-HCl, pH 7.7 at 25° C.) and centrifuged at 28000 g for 15 min. The membrane pellet was washed twice by resuspension and centrifugation. After the second wash the resuspended pellet was incubated at 37° C. for 10 min. Membranes were then collected by centrifugation and the final pellet was resuspended in 50 mM Tris-HCl, 5 mM MgSO4, and 0.5 mM EDTA buffer (pH 7.4 at 37° C.). Fractions of 100 μL of the final membrane suspension (about 1 mg of protein) were incubated at 37° C. for 15 min with 0.6 nM [^3]-8-OH-DPAT (133 Ci/mmol), in the presence or absence of the competing drug, in a final volume of 1.1 mL of assay buffer (50 mM Tris-HCl, 10 nM clonidine, 30 nM prazosin, pH 7.4 at 37° C.). Nonspecific binding was determined with 10 μM 5-HT.
as §2

As to `O=C1C2CCCN2C(=O)CN1CCCCN1CCN(c2cccc3ccccc23)CC1` (stereo not shown) (as salt: hydrochloride) [Compound (g), 2-[4-[4-(Naphth-1-yl)piperazin-1-yl]butyl]-1,4-dioxoperhydropyrrolo[1,2-a]pyrazine], the melting point is 277 to 280 °C (dec.).

For the compound `O=C1C2CCCN2C(=O)CN1CCCCN1CCN(c2cccc3c2OCCCO3)CC1` (stereo not shown) (as salt: hydrochloride) [Compound (h), 2-[4-[4-(3,4-Dihydro-2H-1,5-benzodioxepin-6-yl)piperazin-1-yl]butyl]-1,4-dioxoperhydropyrrolo[1,2-a]pyrazine], the melting point is 212 to 213 °C (dec.).

As for `C[C@H]1CN(c2ccc([N+](=O)[O-])c3ccccc23)CCN1CCCCN1C(=O)C2CCCN2C1=O` (mixture of isomers) [(s), (2S,7aRS)-(+)-2-[4-[2-Methyl-4-(4-nitronaphth-1-yl)piperazin-1-yl]butyl]-1,3-dioxoperhydropyrrolo[1,2-c]imidazole], the “percent value (α1)” value in the data set with α1 adrenoceptor amounted to 66%*. For the same compound, the “percent value marked * in column Ki ± SEM (5-HT1A)” value at 5-HT1A receptor (rat cerebral cortex membranes, [3H]-8-OH-DPAT, footnote to * not given) is reported as 87%*.

Consider `C[C@@H]1CN(c2cccc3ccccc23)CCN1CN1CC(=O)N2CCC[C@@H]2C1=O` [(c), (2R,8aR)-2-[[4-(Naphth-1-yl)-2-methylpiperazin-1-yl]methyl]-1,4-dioxoperhydropyrrolo[1,2-a]pyrazine], for which the Ki on α1 adrenoceptor was over 1000 nM; on 5-HT1A receptor (rat cerebral cortex membranes) it was 9.5 ± 2.2 nM.

With `C[C@H]1CN(c2cccc3ccccc23)CCN1CN1CC(=O)N2CCC[C@H]2C1=O` [(d), (2S,8aS)-2-[[4-(Naphth-1-yl)-2-methylpiperazin-1-yl]methyl]-1,4-dioxoperhydropyrrolo[1,2-a]pyrazine], the Ki at α1 adrenoceptor is over 1000 nM; on 5-HT1A receptor (rat cerebral cortex membranes), 2.5 ± 0.1 nM.

On to `C[C@@H]1CN(c2cccc3ccccc23)CCN1CN1CC(=O)N2CCC[C@H]2C1=O` [(e), (2R,8aS)-2-[[4-(Naphth-1-yl)-2-methylpiperazin-1-yl]methyl]-1,4-dioxoperhydropyrrolo[1,2-a]pyrazine], for which the Ki at α1 adrenoceptor is over 1000 nM; on 5-HT1A receptor (rat cerebral cortex membranes), 6.3 ± 0.2 nM.

For the compound `C[C@H]1CN(c2cccc3ccccc23)CCN1CN1CC(=O)N2CCC[C@@H]2C1=O` [(f), (2S,8aR)-2-[[4-(Naphth-1-yl)-2-methylpiperazin-1-yl]methyl]-1,4-dioxoperhydropyrrolo[1,2-a]pyrazine], the Ki on α1 adrenoceptor was over 1000 nM; at 5-HT1A receptor (rat cerebral cortex membranes), 6.4 ± 0.1 nM.

For the compound `C[C@H]1CN(c2cccc3ccoc23)CCN1CCCCN1C(=O)[C@@H]2CCCN2C1=O` [(n), (2S,7aS)-(+)-2-[4-[4-(1-Benzofuran-7-yl)-2-methylpiperazin-1-yl]butyl]-1,3-dioxoperhydropyrrolo[1,2-c]imidazole], the “percent value (α1)” value in the data set with α1 adrenoceptor is 75%*. In addition, at 5-HT1A receptor (rat cerebral cortex membranes), the inhibitory constant (Ki) worked out at 1.6 ± 0.4 nM.

In the case of `O=C1C2CCCN2C(=O)CN1CCCCN1CCN(c2cccc3ccccc23)CC1` (stereo not shown) [Compound (g), 2-[4-[4-(Naphth-1-yl)piperazin-1-yl]butyl]-1,4-dioxoperhydropyrrolo[1,2-a]pyrazine], the Ki on α1 adrenoceptor stood at 8 ± 1.7 nM; on 5-HT1A receptor (rat cerebral cortex membranes), 0.5 ± 0.2 nM. The “binding to the α1 adrenoceptor (in words)” value with α1 adrenoceptor is reported as “low nanomolar range”. In addition, the “binding to the 5-HT1A receptor (in words)” value at 5-HT1A receptor is listed as “picomolar range”.

Take `O=C1C2CCCN2C(=O)CN1CCCCN1CCN(c2cccc3c2OCCCO3)CC1` (stereo not shown) [Compound (h), 2-[4-[4-(3,4-Dihydro-2H-1,5-benzodioxepin-6-yl)piperazin-1-yl]butyl]-1,4-dioxoperhydropyrrolo[1,2-a]pyrazine]: the Ki is 348 ± 21 nM on α1 adrenoceptor and 3.1 ± 0.9 nM on 5-HT1A receptor (rat cerebral cortex membranes). The “binding to the α1 adrenoceptor (in words)” value with α1 adrenoceptor is given as “nanomolar range”. For the same compound, at 5-HT1A receptor, the “binding to the 5-HT1A receptor (in words)” value is “low nanomolar range”.

In general, melting point refers to the temperature, or range, at which the solid turns liquid. As usually defined, the Ki is the dissociation constant of the complex between target and ligand, obtained from inhibition or displacement.
